ChEMBL document CHEMBL1201862, “PubChem BioAssay data set” (2004)
Blank lines part the entries; values can stand above or below the compound they belong to. Calls of active or inactive are those of the source.

Assays:
[1] = biological target: T1, Rac GTPase-activating protein 1 (Homo sapiens, UniProt Q9H0H5); assay: blockers of MgcRacGAP-driven Rac1 GTP hydrolysis – biochemical, ADP Hunter fluorescence, primary and confirmatory, confirmation (AID 624330); format: functional
T1 sequence (Q9H0H5 whole entry): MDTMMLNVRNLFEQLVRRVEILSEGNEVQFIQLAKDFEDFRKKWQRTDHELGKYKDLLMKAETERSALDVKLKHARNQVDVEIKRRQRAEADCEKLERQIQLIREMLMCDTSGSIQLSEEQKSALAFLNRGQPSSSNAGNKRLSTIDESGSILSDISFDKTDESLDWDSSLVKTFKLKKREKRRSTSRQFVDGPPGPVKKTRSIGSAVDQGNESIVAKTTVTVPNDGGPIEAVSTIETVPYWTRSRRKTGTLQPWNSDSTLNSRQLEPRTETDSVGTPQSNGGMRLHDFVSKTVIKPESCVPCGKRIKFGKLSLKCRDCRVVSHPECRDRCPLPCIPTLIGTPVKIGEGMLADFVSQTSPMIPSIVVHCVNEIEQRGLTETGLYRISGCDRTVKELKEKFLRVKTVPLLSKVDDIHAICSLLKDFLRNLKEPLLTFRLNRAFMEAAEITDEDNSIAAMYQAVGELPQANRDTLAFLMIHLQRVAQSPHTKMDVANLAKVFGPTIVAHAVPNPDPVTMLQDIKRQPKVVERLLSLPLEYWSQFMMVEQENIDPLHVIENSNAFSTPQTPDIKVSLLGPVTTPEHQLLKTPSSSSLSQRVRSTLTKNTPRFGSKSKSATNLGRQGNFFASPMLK

[2] = biological target: T2, Heat shock factor protein 1 (Mus musculus, UniProt P38532); assay: decrease of HSF1-responsive luciferase luminescence – cell-based, NIH3T3, dose retest, confirmation (AID 2382); format: functional;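 also: NIH3T3 fibroblasts with HSF1-driven luciferase reporter stressed by proteasome inhibitor MG132; luminescence from HSF1-driven luciferase expression after 8 hours of MG132 stress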
T2 sequence (P38532 whole entry): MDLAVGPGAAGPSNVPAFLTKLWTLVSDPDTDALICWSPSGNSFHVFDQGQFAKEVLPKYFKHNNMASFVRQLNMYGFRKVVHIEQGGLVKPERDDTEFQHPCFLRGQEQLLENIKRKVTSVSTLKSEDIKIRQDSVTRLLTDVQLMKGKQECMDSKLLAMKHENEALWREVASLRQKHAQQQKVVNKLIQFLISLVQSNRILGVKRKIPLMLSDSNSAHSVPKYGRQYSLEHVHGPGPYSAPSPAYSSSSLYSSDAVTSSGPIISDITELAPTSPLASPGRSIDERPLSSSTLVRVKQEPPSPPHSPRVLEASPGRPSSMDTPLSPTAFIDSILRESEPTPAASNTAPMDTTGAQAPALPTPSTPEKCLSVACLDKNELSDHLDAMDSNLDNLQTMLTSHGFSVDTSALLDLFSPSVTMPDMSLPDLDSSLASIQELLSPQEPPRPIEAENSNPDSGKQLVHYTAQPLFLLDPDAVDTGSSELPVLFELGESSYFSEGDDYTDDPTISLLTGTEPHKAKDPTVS

Cytochrome P450 2C9 = Cytochrome P450 2C9 (Homo sapiens, UniProt P11712)
Sequence of Cytochrome P450 2C9 (P11712 whole entry): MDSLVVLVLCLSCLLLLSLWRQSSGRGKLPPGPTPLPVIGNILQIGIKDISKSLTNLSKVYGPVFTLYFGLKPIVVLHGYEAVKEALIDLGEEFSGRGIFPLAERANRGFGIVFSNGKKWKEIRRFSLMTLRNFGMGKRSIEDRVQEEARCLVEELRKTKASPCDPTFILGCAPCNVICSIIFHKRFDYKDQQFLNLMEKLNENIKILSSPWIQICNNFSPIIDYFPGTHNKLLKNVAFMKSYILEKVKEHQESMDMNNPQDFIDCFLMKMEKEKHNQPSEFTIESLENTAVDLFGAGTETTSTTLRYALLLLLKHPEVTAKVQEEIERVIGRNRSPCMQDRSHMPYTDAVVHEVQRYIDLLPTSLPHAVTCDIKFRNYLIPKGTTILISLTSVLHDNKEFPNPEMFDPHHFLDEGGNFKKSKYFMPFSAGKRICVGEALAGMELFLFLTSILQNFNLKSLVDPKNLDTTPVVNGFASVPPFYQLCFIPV

[3] = P. falciparum Dd2 growth inhibitors, dose response, SYBR Green, cherry-picked samples (AID 1159567); format: functional, cell-based
[4] = biological target: Luciferin 4-monooxygenase (Photinus pyralis, UniProt P08659); assay: inhibition of purified Photinus pyralis luciferase – biochemical, luminescence, dose response (AID 1891)
Sequence of Luciferin 4-monooxygenase (P08659 whole entry): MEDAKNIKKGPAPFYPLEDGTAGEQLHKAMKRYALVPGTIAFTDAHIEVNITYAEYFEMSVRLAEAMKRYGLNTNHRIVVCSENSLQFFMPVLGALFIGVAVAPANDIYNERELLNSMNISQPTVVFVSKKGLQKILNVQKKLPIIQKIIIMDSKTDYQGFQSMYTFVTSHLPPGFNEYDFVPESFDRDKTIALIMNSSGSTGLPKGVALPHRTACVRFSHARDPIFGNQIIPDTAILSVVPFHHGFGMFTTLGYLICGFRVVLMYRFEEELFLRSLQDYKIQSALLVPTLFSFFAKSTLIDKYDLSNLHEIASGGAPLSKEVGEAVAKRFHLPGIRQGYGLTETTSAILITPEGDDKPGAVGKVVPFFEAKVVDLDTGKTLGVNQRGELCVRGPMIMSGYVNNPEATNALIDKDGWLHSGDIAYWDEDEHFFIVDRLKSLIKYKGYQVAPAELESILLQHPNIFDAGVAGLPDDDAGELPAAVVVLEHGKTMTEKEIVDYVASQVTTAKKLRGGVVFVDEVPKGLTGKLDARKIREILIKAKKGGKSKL

[5] = Luminescence Cell-Based Dose Confirmation HTS to Identify Inhibitors of Platelet Dense Granule Release. [Related pubchem assays: 1663 (Primary HTS), 1678 (Summary of Project)]; format: functional
[6] = Luminescence Cell-Based Dose Retest to Confirm Inhibitors of Cancer Stem Cells. [Related pubchem assays (depositor defined):AID2717, AID2721]; format: functional; settings: Homo sapiens
Cytochrome P450 2C19 = Cytochrome P450 2C19 (Homo sapiens, UniProt P33261); assay: Cytochrome panel assay with activity outcomes. Panel member name: p450-cyp2c19 Compounds with AC50 equal or less than 10 uM are considered active; format: functional; settings: read-out: AC50
Sequence of Cytochrome P450 2C19 (P33261 whole entry): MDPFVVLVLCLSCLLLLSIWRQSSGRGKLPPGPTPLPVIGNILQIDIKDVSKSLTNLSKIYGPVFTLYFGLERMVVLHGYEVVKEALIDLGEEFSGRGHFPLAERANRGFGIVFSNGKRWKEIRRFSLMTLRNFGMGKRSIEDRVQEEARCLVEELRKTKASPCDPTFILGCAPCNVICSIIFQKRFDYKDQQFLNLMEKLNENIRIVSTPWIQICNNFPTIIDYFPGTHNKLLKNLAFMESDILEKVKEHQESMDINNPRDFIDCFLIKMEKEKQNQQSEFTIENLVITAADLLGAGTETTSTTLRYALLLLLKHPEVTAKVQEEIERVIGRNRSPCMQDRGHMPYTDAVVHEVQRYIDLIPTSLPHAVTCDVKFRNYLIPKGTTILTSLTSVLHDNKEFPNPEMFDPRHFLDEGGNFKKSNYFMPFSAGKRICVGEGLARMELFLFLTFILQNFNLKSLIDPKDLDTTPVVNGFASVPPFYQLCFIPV

[7] = biological target: T3, Corticotropin-releasing factor receptor 2/Corticotropin-releasing factor-binding protein (Homo sapiens, UniProt P24387+Q13324); assay: Dose Response confirmation of uHTS hits for small molecule antagonists of the CRF-binding protein and CRF-R2 receptor complex.; format: functional; settings: read-out: IC50_Mean
T3 sequence (Q13324 whole entry): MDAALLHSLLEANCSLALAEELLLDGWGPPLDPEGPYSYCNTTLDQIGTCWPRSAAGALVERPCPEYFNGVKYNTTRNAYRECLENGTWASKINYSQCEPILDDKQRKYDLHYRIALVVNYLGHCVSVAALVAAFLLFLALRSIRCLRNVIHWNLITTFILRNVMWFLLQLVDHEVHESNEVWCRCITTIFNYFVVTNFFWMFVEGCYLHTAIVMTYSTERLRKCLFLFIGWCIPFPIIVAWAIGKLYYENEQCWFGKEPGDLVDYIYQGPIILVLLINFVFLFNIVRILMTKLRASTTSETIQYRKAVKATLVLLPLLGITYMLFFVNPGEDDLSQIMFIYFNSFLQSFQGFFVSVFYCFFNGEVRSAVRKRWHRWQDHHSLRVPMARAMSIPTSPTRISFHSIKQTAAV
T3 sequence (P24387 whole entry): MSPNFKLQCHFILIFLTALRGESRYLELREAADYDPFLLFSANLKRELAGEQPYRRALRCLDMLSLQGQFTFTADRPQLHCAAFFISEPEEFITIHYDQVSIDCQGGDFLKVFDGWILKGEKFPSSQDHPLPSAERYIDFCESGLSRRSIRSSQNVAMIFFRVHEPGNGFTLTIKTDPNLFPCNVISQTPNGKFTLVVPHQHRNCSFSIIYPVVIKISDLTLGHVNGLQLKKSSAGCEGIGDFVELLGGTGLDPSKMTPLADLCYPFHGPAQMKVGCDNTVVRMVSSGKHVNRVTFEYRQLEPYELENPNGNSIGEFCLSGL

[8] = biological target: T3, Corticotropin-releasing factor receptor 2/Corticotropin-releasing factor-binding protein; assay: activators of CRF receptor 2 with binding protein – uHTS hits, confirmation (AID 602473); format: functional; settings: read-out: EC50_Mean

- IC50 [1]: 253 µM (active)
SMILES: Cc1cc(NC(=O)CN2CCC(C)CC2)no1

- EC50 [2]: > 195 µM (not active)
- AC50 (Cytochrome P450 2C9): 12.6 µM (inconclusive)
SMILES: Cc1cccc(Nc2ccncc2S(=O)(=O)NC(=O)NC(C)C)c1 [TORSEMIDE]

- EC50 [2]: > 195 µM (not active)
SMILES: Cc1ccc(S(=O)(=O)N2CCN(C(=O)c3c(-c4ccccc4)noc3C)CC2)c(C)c1

SMILES: COc1ccc(CN2CC3(C2)CN(Cc2ccc4c(c2)OCO4)[C@H](CO)c2[nH]c4cc(OC)ccc4c23)cc1
- AC50 [3]: 3.49 µM (active)

SMILES: Cc1cccc(C(=N)NOC(=O)c2ccc(Cl)cc2Cl)c1
- EC50 [4]: 0.761 µM (active)
- EC50 [5]: 3.2 µM (active)

SMILES: CN1CCc2c(sc(NC(=O)c3ccc(S(=O)(=O)N4CCc5ccccc54)cc3)c2C(N)=O)C1
- AC50 [6]: 2.91 µM (active)

SMILES: Cc1nc2oc3c(NCC4CCCO4)ncnc3c2c2c1COC(C)(C)C2 (configuration not stated)
- EC50 [4]: > 112 µM (not active)
- EC50 [5]: > 112 µM (not active)

- IC50 [1]: 138 µM (active)
SMILES: COCC(C)NCc1ccccc1C (configuration not stated)

- IC50 [1]: 37 µM (active)
SMILES: COc1ccc(C(=O)/C=C/c2ccc(O)cc2)cc1

- EC50 [2]: > 195 µM (not active)
SMILES: CCc1nn(CC(=O)N2CCC(C(N)=O)CC2)c(=O)c2cc3occc3n12

- EC50 [2]: > 195 µM (not active)
SMILES: CCn1c(C(=O)O)c(CC(=O)Nc2ccccc2OC)c2ccccc21

- EC50 [2]: > 195 µM (not active)
SMILES: CCCCn1c(=O)n(CC(=O)Nc2c(CC)cccc2CC)c(=O)c2c1nc(CO)n2CCC

- EC50 [2]: > 195 µM (not active)
SMILES: Cc1ccc(S(=O)(=O)NC(=NCc2ccccc2)c2ccc(F)cc2)cc1

- EC50 [2]: > 195 µM (not active)
SMILES: COc1ccc(N2C(=O)C(C)(C)C2c2c(O)ccc3ccccc23)cc1 (configuration not stated)

SMILES: N#Cc1nc(Cc2ccccc2)oc1N1CCCC1
- EC50 [4]: 18.5 µM (active)
- EC50 [5]: > 112 µM (not active)

SMILES: CC[C@@H]1CC=C[C@H]2[C@H]1C(=O)N(Cc1ccccc1)[C@H]2c1ccoc1
- AC50 [6]: 5.39 µM (active)

- AC50 (Cytochrome P450 2C19): 22.4 µM (inconclusive)
- IC50 [7]: > 47.1 µM (inactive)
- EC50 [8]: > 53 µM (inactive)
SMILES: CCN(CCO)Cc1csc2cccc(Br)c12

- IC50 [7]: > 47.1 µM (inactive)
- EC50 [8]: > 53 µM (inactive)
SMILES: CC(=O)Nc1ccc(NC(=O)C(C)OC(=O)C2CCCCC2)cc1 (configuration not stated)

- IC50 [7]: > 47.1 µM (inactive)
- EC50 [8]: > 53 µM (inactive)
SMILES: COc1ccc2[nH]cc(CCN=C(S)NC3CCCC3)c2c1

- EC50 [2]: > 195 µM (not active)
SMILES: Cc1cccc(CN2CCNC2=O)c1

- IC50 [1]: 223 µM (active)
SMILES: O=C(/C(=C/c1cccnc1)n1ccnc1)c1ccc(Cl)cc1Cl

SMILES: O=C(Cn1c(O)c(N=NC(=O)c2ccncc2)c2ccccc21)Nc1ccccc1
- EC50 [4]: > 112 µM (not active)
- EC50 [5]: > 112 µM (not active)

- EC50 [2]: > 195 µM (not active)
- AC50 (Cytochrome P450 2C19): 3.55 µM (inconclusive)
SMILES: O=C1C2CCCN2c2ccc(S(=O)(=O)N3CCOCC3)cc2N1Cc1cccc(C(F)(F)F)c1 (configuration not stated)

- EC50 [2]: > 195 µM (not active)
SMILES: CCOC(=O)CSc1nnc(-c2ccccc2)c(-c2ccccc2)n1

SMILES: O=C(Nc1cccc(O)c1)c1noc2c1CCc1ccccc1-2
- EC50 [4]: 1.03 µM (active)
- EC50 [5]: 8.29 µM (active)

- EC50 [2]: > 195 µM (not active)
SMILES: CCOc1cc(/C=N/NC(=O)c2cccc(S(=O)(=O)N3CCOCC3)c2)ccc1OCC(=O)N(C)C

- IC50 [7]: > 47.1 µM (inactive)
- EC50 [8]: > 53 µM (inactive)
SMILES: Cn1nc(N)c2ncc(C(Cl)(Cl)Cl)nc21

- EC50 [2]: > 195 µM (not active)
SMILES: CCCCNC(=O)CN=C(S)N(Cc1ccccc1)Cc1cccs1

SMILES: Cc1cc(-c2ccc(S(=O)(=O)N3CCN(c4ccccc4F)CC3)s2)on1
- EC50 [4]: > 112 µM (not active)
- EC50 [5]: > 112 µM (not active)

- IC50 [1]: 148 µM (active)
SMILES: Cc1sc2ncnc(N(C)CCc3ccccn3)c2c1C

SMILES: CCOc1ccc(CN2CCN(CCCn3cccn3)CC2CCO)cc1 (configuration not stated)
- EC50 [4]: > 112 µM (not active)
- EC50 [5]: 83.2 µM (active)

SMILES: CN(C)C(CNS(=O)(=O)c1ccc2ccccc2c1)c1ccccc1 (configuration not stated)
- AC50 [6]: > 195 µM (inactive)

- IC50 [1]: 39.6 µM (active)
SMILES: COc1ccc(Cn2nnnc2C(c2cccnc2)N2CCN(c3ccc(O)cc3)CC2)cc1 (configuration not stated)

SMILES: O=C(Nc1cccc(F)c1)C1CCN(C(=O)Cc2ccccc2)CC1
- EC50 [4]: > 112 µM (not active)
- EC50 [5]: > 112 µM (not active)

SMILES: C[C@H]1CN([C@@H](C)CO)C(=O)c2cc(NC(=O)Cc3cn(C)c4ccccc34)ccc2O[C@H]1CN(C)S(=O)(=O)c1ccccc1
- AC50 [3]: 4.86 µM (active)

SMILES: O=c1cc(N2CCCCC2)c(-c2ccccc2)nn1Cc1ccccc1
- AC50 [6]: 2.06 µM (active)

- IC50 [7]: > 47.1 µM (inactive)
- EC50 [8]: > 53 µM (inactive)
SMILES: CN(C)c1c([N+](=O)[O-])ncn1C

- IC50 [7]: 34.8 µM (active)
- EC50 [8]: > 53 µM (inactive)
SMILES: Nc1cc(OC(=O)c2ccco2)nn1S(=O)(=O)c1ccc(F)cc1

- IC50 [7]: > 47.1 µM (inactive)
- EC50 [8]: > 53 µM (inactive)
SMILES: Cc1ccccc1Nc1scc(-c2ccc(Br)cc2)[n+]1-c1ccccc1C

SMILES: COc1ccc(Br)cc1CNC(=O)c1ccc2c(c1)N(C)CCS2
- EC50 [4]: > 112 µM (not active)
- EC50 [5]: > 112 µM (not active)

SMILES: CC(Cc1ccccc1)Nc1ncnc2c1ncn2C1OC(CO)C(O)C1O (configuration not stated)
- EC50 [4]: > 112 µM (not active)
- EC50 [5]: < 0.701 µM (active)

- IC50 [1]: 52.1 µM (active)
SMILES: CCOc1cc(/C=N/NC(=O)C2CCCC2)ccc1O

SMILES: CC(C)=CCc1c(O)cc2c(=O)c3ccc(O)cc3oc2c1O
- AC50 [6]: 5.16 µM (active)

- IC50 [1]: 18.5 µM (active)
SMILES: N#CC1(Nc2ccc3c4c(cccc24)CC3)CCCCC1

SMILES: CC(C)(C)[S+]([O-])N1Cc2cc(C(=O)N[C@@H]3CCN(Cc4ccccc4)C3)nc(-c3cccc(C#CCC4CCCC4)c3)c2[C@H]1CCO (some centres not stated)
- AC50 [3]: 3.75 µM (active)

SMILES: O=C(c1ccc(S(=O)(=O)Nc2ccccc2)cc1)N1CCCC1
- EC50 [4]: > 112 µM (not active)
- EC50 [5]: > 112 µM (not active)

- IC50 [1]: 29.1 µM (active)
SMILES: CN1CCN(/N=C/c2nc(-c3ccccc3)n3ccccc23)CC1

- EC50 [2]: > 195 µM (not active)
SMILES: Nc1nc(NCc2ccco2)nc(NC2CCCCC2)c1[N+](=O)[O-]

SMILES: CCOC(=O)C1CCCN(C(=O)CCCn2nc(C)n3c(cc4sccc43)c2=O)C1 (configuration not stated)
- EC50 [4]: > 112 µM (not active)
- EC50 [5]: > 112 µM (not active)

SMILES: COc1ccccc1S(=O)(=O)N[C@H]1CC[C@@H](CCn2cc(C3CCCC3)nn2)O[C@@H]1CO
- AC50 [3]: 11.5 µM (active)
